Experimental data from US20230293540A1, “ANTICOAGULANT COMPOUNDS, METHODS AND DEVICES FOR OPHTHALMIC USE” (Elixir Medical Corporation, priority 2020, published 2023).

Key:
porcine coronary artery = assay: Histopathology scores and QCA of anticoagulant eluting stents in porcine coronary artery model (Examples 2, 3); format: in vivo
Method: The mean score was calculated and reported. […] The smaller the fibrin score, the better efficacy.

[1] = test system: Calcium-reconstituted sheep blood; assay: Activated clotting time (ACT) in calcium-reconstituted sheep blood; format: biochemical; conditions: individual drug at 0.6 ng/mg
Method: The activated clotting time (ACT) evaluation of anticoagulants was performed in Calcium-reconstituted sheep blood and recorded employing the Hemochron® Response device. […] A target amount of drug solution was then added into the test tube. […] The tube was gently shaken before being inserted into the Hemochron Response detector. The ACT read out was recorded and reported. The ACT of the control blood in the absence of any drug as first determined to establish a baseline. Then ACT was determined in the presence of different concentrations of the drug as a single component. Selected drug combinations, were then tested to evaluate for potential synergy in action between the two drugs.

[2] = Drug concentration in PEG 300 supernatant and precipitation in phosphate buffered saline (HPLC); format: physicochemical; conditions: after 24 hours in DPBS
Method: The vial was sonicated with 40° C. heat for 30 minutes and then was placed in the 40° C. oven overnight for 20 hours. […] The crystal fine particles were verified by following. 100 µL of the clear PEG 300 solution was added to a vial with 4.3 mL of Dulbecco’s phosphate buffered saline to mimic the ophthalmic vitreous humor. […] The solution stands overnight for 24 hours at room temperature. […] The solution was then centrifuged, and the supernatant was analyzed by HPLC. […] The solution was sonicated 10 minutes until clear. […] The crystal fine particles were verified by following. […] The vial was sonicated with 40° C. heat for 30 minutes and then was placed in the 40° C. oven overnight for 20 hours.

[3] = In vivo drug released from / remaining on stent (HPLC); design: species or system porcine
Source text: The stented artery was cut longitudinally with surgical scissors. The stents were separated from the tissue.

[4] = Example 3 stent, within 28 days

CC1CNc2c(cccc2S(=O)(=O)N[C@@H](CCCNC(=N)N)C(=O)N2CC[C@@H](C)C[C@@H]2C(=O)O)C1 (stereo partly shown) [Argatroban]
Inhibition of fibrin formation compared to bare metal control stents (porcine coronary artery; 7 days): not more effective
ACT [1]: 301

COc1ccc(-n2nc(C(N)=O)c3c2C(=O)N(c2ccc(N4CCCCC4=O)cc2)CC3)cc1 [Apixaban]
ACT [1]: 522
Fraction precipitated out to crystalline form [2]: 33%

O=C(NC[C@H]1CN(c2ccc(N3CCOCC3=O)cc2)C(=O)O1)c1ccc(Cl)s1 [Rivaroxaban]
Inhibition of fibrin formation compared to bare metal control stents (porcine coronary artery; 7 days): more effective
Inhibition of fibrin formation compared to control (porcine coronary artery; Example 3, fast release formulation, 7 days and/or 28 days): more effective
Rivaroxaban amount released from stent ([3]; Example 3 stent, in combination with m-TOR inhibitor formulation, within 7 days): about 68.1 µg
Percent of rivaroxaban released from stent [3, 4]: about 92.5%
Rivaroxaban dose released from stent [3, 4]: about 92.5 µg
Cumulative Percent Release of drug by day 7, Rivaroxaban ([3]; Rivaroxaban/Argatroban combination stent): about 70.9%
Cumulative Percent Release of drug by day 7 ([3]; single-drug stent): about 99.5%

Dalteparin
Inhibition of fibrin formation compared to bare metal control stents (porcine coronary artery; 7 days): not more effective
Inhibition of smooth muscle cell proliferation (LLL) compared to bare metal control stents (porcine coronary artery; 7 days): not more effective
